ChEMBL document CHEMBL4385645, “Broad-spectrum antifungal activity of spirooxindolo-pyrrolidine tethered indole/imidazole hybrid heterocycles against fungal pathogens” (Bioorg Med Chem Lett, 2019)
Converted amounts (≈) assume the structure as drawn. The source made the active and inactive calls. The calls are words filed in the database; no cut-off is given here.

Tests used:
Candida albicans [1] = experiment: Antifungal activity against Candida albicans assessed as reduction in fungal growth incubated for 24 hrs by broth microdilution method; type: functional
Candida albicans [2] = experiment: Antifungal activity against Candida albicans NR-29437 assessed as reduction in fungal growth incubated for 24 hrs by broth microdilution method; type: functional; details: NR-29437, 24 h
Candida albicans [3] = experiment: Antifungal activity against Candida albicans ATCC 10231 assessed as reduction in fungal growth incubated for 24 hrs by broth microdilution method; type: functional; details: ATCC 10231, 24 h
Candida albicans [4] = experiment: Antifungal activity against Candida albicans NR-29438 assessed as reduction in fungal growth incubated for 24 hrs by broth microdilution method; type: functional; details: NR-29438, 24 h
Candida albicans [5] = experiment: Antifungal activity against Candida albicans NR-29367 assessed as reduction in fungal growth incubated for 24 hrs by broth microdilution method; type: functional; details: NR-29367, 24 h
Cryptococcus neoformans [6] = experiment: Antifungal activity against Cryptococcus neoformans NR-41297 assessed as reduction in fungal growth incubated for 24 hrs by broth microdilution method; type: functional; details: NR-41297, 24 h
Candida albicans [7] = experiment: Antifungal activity against Candida albicans NR-29434 assessed as reduction in fungal growth incubated for 24 hrs by broth microdilution method; type: functional; details: NR-29434, 24 h
Cryptococcus neoformans [8] = experiment: Antifungal activity against Cryptococcus neoformans NR-41294 assessed as reduction in fungal growth incubated for 24 hrs by broth microdilution method; type: functional; details: NR-41294, 24 h
Candida albicans [9] = experiment: Antifungal activity against Candida albicans NR-29442 assessed as reduction in fungal growth incubated for 24 hrs by broth microdilution method; type: functional; details: NR-29442, 24 h
Cryptococcus neoformans [10] = experiment: Antifungal activity against Cryptococcus neoformans NR-41298 assessed as reduction in fungal growth incubated for 24 hrs by broth microdilution method; type: functional; details: NR-41298, 24 h
Candida albicans [11] = experiment: Antifungal activity against Candida albicans NR5-29453 assessed as reduction in fungal growth incubated for 24 hrs by broth microdilution method; type: functional; details: NR5-29453, 24 h
Candida albicans [12] = experiment: Antifungal activity against Candida albicans NR-29448 assessed as reduction in fungal growth incubated for 24 hrs by broth microdilution method; type: functional; details: NR-29448, 24 h
Cryptococcus neoformans [13] = experiment: Antifungal activity against Cryptococcus neoformans NR-41295 assessed as reduction in fungal growth incubated for 24 hrs by broth microdilution method; type: functional; details: NR-41295, 24 h
Candida albicans [14] = experiment: Antifungal activity against Candida albicans NR-29446 assessed as reduction in fungal growth incubated for 24 hrs by broth microdilution method; type: functional; details: NR-29446, 24 h
Cryptococcus neoformans [15] = experiment: Antifungal activity against Cryptococcus neoformans NR-41292 assessed as reduction in fungal growth incubated for 24 hrs by broth microdilution method; type: functional; details: NR-41292, 24 h
Cryptococcus neoformans [16] = experiment: Antifungal activity against Cryptococcus neoformans NR-41291 assessed as reduction in fungal growth incubated for 24 hrs by broth microdilution method; type: functional; details: NR-41291, 24 h
HCT-116 = experiment: Cytotoxicity against human HCT116 cells assessed as reduction in cell viability at 2 to 128 ug/ml incubated for 24 hrs by MTS assay; type: cell-based; details: hct-116, 24 h
Cryptococcus neoformans [17] = experiment: Antifungal activity against Cryptococcus neoformans NR-41296 assessed as reduction in fungal growth incubated for 24 hrs by broth microdilution method; type: functional; details: NR-41296, 24 h
Candida albicans [18] = experiment: Inhibition of biofilm formation in Candida albicans assessed as reduction in metabolic activity at 32 and 64 ug/ml incubated for 48 hrs by MTS assay; type: functional
Candida albicans [19] = experiment: Antifungal activity against Candida albicans NR-29439 assessed as reduction in fungal growth incubated for 24 hrs by broth microdilution method; type: functional; details: NR-29439, 24 h
Candida albicans [20] = experiment: Antifungal activity against Candida albicans assessed as reduction in hyphae formation and attachment at 32 to 64 ug/ml incubated for 12 hrs by crystal violet dye-based microscopic analysis; type: functional; parameters: scale not given: the % may be the effect or the level left
Candida albicans [21] = experiment: Antifungal activity against Candida albicans NR-29449 assessed as reduction in fungal growth incubated for 24 hrs by broth microdilution method; type: functional; details: NR-29449, 24 h
Cryptococcus neoformans [22] = experiment: Antifungal activity against Cryptococcus neoformans NR-41299 assessed as reduction in fungal growth incubated for 24 hrs by broth microdilution method; type: functional; details: NR-41299, 24 h
Candida albicans [23] = experiment: Antifungal activity against Candida albicans NR-29366 assessed as reduction in fungal growth incubated for 24 hrs by broth microdilution method; type: functional, organism-based
Candida albicans [24] = experiment: Antifungal activity against Candida albicans NR-29444 assessed as reduction in fungal growth incubated for 24 hrs by broth microdilution method; type: functional; details: NR-29444, 24 h
Candida albicans [25] = experiment: Antifungal activity against Candida albicans NR-29435 assessed as reduction in fungal growth incubated for 24 hrs by broth microdilution method; type: functional; details: NR-29435, 24 h
Candida albicans [26] = experiment: Antifungal activity against Candida albicans NR-29441 assessed as reduction in fungal growth incubated for 24 hrs by broth microdilution method; type: functional; details: NR-29441, 24 h
Candida albicans [27] = experiment: Antifungal activity against Candida albicans NR-29440 assessed as reduction in fungal growth incubated for 24 hrs by broth microdilution method; type: functional; details: NR-29440, 24 h

## COc1ccc([C@H]2[C@H]([N+](=O)[O-])[C@@H](Cc3c[nH]cn3)N[C@]23C(=O)Nc2ccc(OC(F)(F)F)cc23)cc1
Candida albicans [1]
  MIC: 32 µg/mL (≈ 63.6 µM)

## O=C1Nc2ccc(OC(F)(F)F)cc2[C@@]12N[C@H](Cc1c[nH]cn1)[C@@H]([N+](=O)[O-])[C@@H]2c1ccc(Cl)cc1
Candida albicans [1]
  MIC: 8 µg/mL (≈ 15.8 µM)

## O=C1Nc2ccc(OC(F)(F)F)cc2[C@@]12N[C@H](Cc1c[nH]c3ccccc13)[C@@H]([N+](=O)[O-])[C@@H]2c1cccc([N+](=O)[O-])c1
Candida albicans [1]
  MIC: 16 µg/mL (≈ 28.2 µM)

## O=C1Nc2ccccc2[C@@]12N[C@H](Cc1c[nH]c3ccccc13)[C@@H]([N+](=O)[O-])[C@@H]2c1ccc(Br)cc1
Candida albicans [1]
  MIC: 64 µg/mL (≈ 124 µM)

## O=C1Nc2ccccc2[C@@]12N[C@H](Cc1c[nH]cn1)[C@@H]([N+](=O)[O-])[C@@H]2c1ccccc1
Candida albicans [1]
  MIC: 16 µg/mL (≈ 41.1 µM)

## O=C1Nc2ccccc2[C@@]12N[C@H](Cc1c[nH]cn1)[C@@H]([N+](=O)[O-])[C@@H]2c1ccccc1Cl
Candida albicans [1]
  MIC: 8 µg/mL (≈ 18.9 µM)

## COc1ccc([C@H]2[C@H]([N+](=O)[O-])[C@@H](Cc3c[nH]cn3)N[C@]23C(=O)Nc2ccccc23)cc1
Candida albicans [1]
  MIC: 32 µg/mL (≈ 76.3 µM)

## O=C1Nc2ccccc2[C@@]12N[C@H](Cc1c[nH]cn1)[C@@H]([N+](=O)[O-])[C@@H]2c1ccc(Cl)cc1
Candida albicans [1]
  MIC: 8 µg/mL (≈ 18.9 µM)

## O=C1Nc2ccc(OC(F)(F)F)cc2[C@@]12N[C@H](Cc1c[nH]c3ccccc13)[C@@H]([N+](=O)[O-])[C@@H]2c1ccccc1Cl
Candida albicans [1]
  MIC: 16 µg/mL (≈ 28.7 µM)

## O=C1Nc2ccccc2[C@@]12N[C@H](Cc1c[nH]c3ccccc13)[C@@H]([N+](=O)[O-])[C@@H]2c1ccccc1Cl
Candida albicans [1]
  MIC: 32 µg/mL (≈ 67.7 µM)

## O=C1Nc2ccccc2[C@@]12N[C@H](Cc1c[nH]c3ccccc13)[C@@H]([N+](=O)[O-])[C@@H]2c1ccc(Cl)cc1
Candida albicans [1]
  MIC: 16 µg/mL (≈ 33.8 µM)

## Cc1ccc([C@H]2[C@H]([N+](=O)[O-])[C@@H](Cc3c[nH]c4ccccc34)N[C@]23C(=O)Nc2ccc(OC(F)(F)F)cc23)cc1
Candida albicans [1]
  MIC: 32 µg/mL (≈ 59.6 µM)

## Cc1ccc([C@H]2[C@H]([N+](=O)[O-])[C@@H](Cc3c[nH]c4ccccc34)N[C@]23C(=O)Nc2ccccc23)cc1
Candida albicans [1]
  MIC: 128 µg/mL (≈ 283 µM)

## O=C1Nc2ccccc2[C@@]12N[C@H](Cc1c[nH]c3ccccc13)[C@@H]([N+](=O)[O-])[C@@H]2c1ccccc1
Candida albicans [1]
  MIC: 64 µg/mL (≈ 146 µM)

## COc1ccc([C@H]2[C@H]([N+](=O)[O-])[C@@H](Cc3c[nH]c4ccccc34)N[C@]23C(=O)Nc2ccccc23)cc1
Candida albicans [1]
  MIC: 16 µg/mL (≈ 34.2 µM)

## O=C1Nc2ccc(OC(F)(F)F)cc2[C@@]12N[C@H](Cc1c[nH]c3ccccc13)[C@@H]([N+](=O)[O-])[C@@H]2c1ccccc1
Candida albicans [1]
  MIC: 8 µg/mL (≈ 15.3 µM)

## O=C1Nc2ccc(OC(F)(F)F)cc2[C@@]12N[C@H](Cc1c[nH]cn1)[C@@H]([N+](=O)[O-])[C@@H]2c1ccccc1Cl
Candida albicans [2]
  MIC: 16 µg/mL (≈ 31.5 µM)
Candida albicans [3]
  MIC: 8 µg/mL (≈ 15.8 µM)
Candida albicans [4]
  MIC: 16 µg/mL (≈ 31.5 µM)
Candida albicans [5]
  MIC: 16 µg/mL (≈ 31.5 µM)
Cryptococcus neoformans [6]
  MIC: 16 µg/mL (≈ 31.5 µM)
Candida albicans [7]
  MIC: 16 µg/mL (≈ 31.5 µM)
Cryptococcus neoformans [8]
  MIC: 4 µg/mL (≈ 7.88 µM)
Candida albicans [9]
  MIC: 8 µg/mL (≈ 15.8 µM)
Cryptococcus neoformans [10]
  MIC: 8 µg/mL (≈ 15.8 µM)
Candida albicans [11]
  MIC: 16 µg/mL (≈ 31.5 µM)
Candida albicans [12]
  MIC: 4 µg/mL (≈ 7.88 µM)
Cryptococcus neoformans [13]
  MIC: 16 µg/mL (≈ 31.5 µM)
Candida albicans [14]
  MIC: 4 µg/mL (≈ 7.88 µM)
Cryptococcus neoformans [15]
  MIC: 16 µg/mL (≈ 31.5 µM)
Cryptococcus neoformans [16]
  MIC: 16 µg/mL (≈ 31.5 µM)
Candida albicans [1]
  MIC: 4 µg/mL (≈ 7.88 µM)
HCT-116
  Activity: Non-Toxic
Cryptococcus neoformans [17]
  MIC: 16 µg/mL (≈ 31.5 µM)
Candida albicans [18]
  inhibition (INH): <=25%
Candida albicans [19]
  MIC: 8 µg/mL (≈ 15.8 µM)
Candida albicans [20]
  Activity: 30 - 40%
Candida albicans [21]
  MIC: 8 µg/mL (≈ 15.8 µM)
Cryptococcus neoformans [22]
  MIC: 16 µg/mL (≈ 31.5 µM)
Candida albicans [23]
  inhibition: Active
Candida albicans [24]
  MIC: 16 µg/mL (≈ 31.5 µM)
Candida albicans [25]
  MIC: 8 µg/mL (≈ 15.8 µM)
Candida albicans [26]
  MIC: 8 µg/mL (≈ 15.8 µM)
Candida albicans [27]
  MIC: 16 µg/mL (≈ 31.5 µM)

## O=C1Nc2ccccc2[C@@]12N[C@H](Cc1c[nH]c3ccccc13)[C@@H]([N+](=O)[O-])[C@@H]2c1cccc([N+](=O)[O-])c1
Candida albicans [1]
  MIC: 8 µg/mL (≈ 16.5 µM)

## O=C1Nc2ccc(OC(F)(F)F)cc2[C@@]12N[C@H](Cc1c[nH]c3ccccc13)[C@@H]([N+](=O)[O-])[C@@H]2c1ccc(Cl)cc1
Candida albicans [1]
  MIC: 16 µg/mL (≈ 28.7 µM)

## COc1ccc([C@H]2[C@H]([N+](=O)[O-])[C@@H](Cc3c[nH]c4ccccc34)N[C@]23C(=O)Nc2ccc(OC(F)(F)F)cc23)cc1
Candida albicans [1]
  MIC: 16 µg/mL (≈ 29 µM)

## O=C1Nc2ccc(OC(F)(F)F)cc2[C@@]12N[C@H](Cc1c[nH]cn1)[C@@H]([N+](=O)[O-])[C@@H]2c1ccccc1
Candida albicans [1]
  MIC: 32 µg/mL (≈ 67.6 µM)

## Cc1ccc([C@H]2[C@H]([N+](=O)[O-])[C@@H](Cc3c[nH]cn3)N[C@]23C(=O)Nc2ccccc23)cc1
Candida albicans [1]
  MIC: 64 µg/mL (≈ 159 µM)

## O=C1Nc2ccc(OC(F)(F)F)cc2[C@@]12N[C@H](Cc1c[nH]cn1)[C@@H]([N+](=O)[O-])[C@@H]2c1cccc([N+](=O)[O-])c1
Candida albicans [1]
  MIC: 32 µg/mL (≈ 61.7 µM)

## Cc1ccc([C@H]2[C@H]([N+](=O)[O-])[C@@H](Cc3c[nH]cn3)N[C@]23C(=O)Nc2ccc(OC(F)(F)F)cc23)cc1
Candida albicans [1]
  MIC: 16 µg/mL (≈ 32.8 µM)

## O=C1Nc2ccc(OC(F)(F)F)cc2[C@@]12N[C@H](Cc1c[nH]cn1)[C@@H]([N+](=O)[O-])[C@@H]2c1ccc(Br)cc1
Candida albicans [1]
  MIC: 8 µg/mL (≈ 14.5 µM)

## O=C1Nc2ccc(OC(F)(F)F)cc2[C@@]12N[C@H](Cc1c[nH]c3ccccc13)[C@@H]([N+](=O)[O-])[C@@H]2c1ccc(Br)cc1
Candida albicans [1]
  MIC: 8 µg/mL (≈ 13.3 µM)

## O=C1Nc2ccccc2[C@@]12N[C@H](Cc1c[nH]cn1)[C@@H]([N+](=O)[O-])[C@@H]2c1ccc(Br)cc1
Candida albicans [1]
  MIC: 16 µg/mL (≈ 34.2 µM)

## O=C1Nc2ccccc2[C@@]12N[C@H](Cc1c[nH]cn1)[C@@H]([N+](=O)[O-])[C@@H]2c1cccc([N+](=O)[O-])c1
Candida albicans [1]
  MIC: 16 µg/mL (≈ 36.8 µM)
